Measurements from US20240360157A1, “TYK2 INHIBITORS” (BIOGEN MA INC., priority 2021, published 2024).

How the values were obtained:
Assay type in all cases: biochemical
[1] = molecular target: human TYK2 catalytic kinase (JH1) domain (Homo sapiens (Human), UniProt P29597); assay: ADP-Glo Kinase Assay, recombinant TYK2 catalytic kinase (JH1) domain; conditions: recombinant JH1 domain 2 nM, 10 μM ATP, JAK3-974 peptide, mean, read-out: TYK2 biochem IC50 (nM) Mean
Outline: (§1)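 Compounds were titrated in 11 points of 3-fold dilution starting at 10 μM or 1 μM. Enzyme (JAK1 4 nM, JAK2 0.2 nM, JAK3 0.3 nM, TYK2 2 nM) and 50 μM peptide reacted for 100 minutes, followed by ADP-to-luminescence detection; IC50 by 4-parameter fit.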

[2] = molecular target: human JAK2 catalytic kinase (JH1) domain (Homo sapiens (Human), UniProt O60674); assay: ADP-Glo Kinase Assay, recombinant JAK2 catalytic kinase (JH1) domain; conditions: recombinant JH1 domain 0.2 nM, 15 μM ATP, JAK3-974 peptide, mean, read-out: JAK2 biochem IC50 (nM) Mean
human JAK2 catalytic kinase (JH1) domain, sequence (O60674 849-1124): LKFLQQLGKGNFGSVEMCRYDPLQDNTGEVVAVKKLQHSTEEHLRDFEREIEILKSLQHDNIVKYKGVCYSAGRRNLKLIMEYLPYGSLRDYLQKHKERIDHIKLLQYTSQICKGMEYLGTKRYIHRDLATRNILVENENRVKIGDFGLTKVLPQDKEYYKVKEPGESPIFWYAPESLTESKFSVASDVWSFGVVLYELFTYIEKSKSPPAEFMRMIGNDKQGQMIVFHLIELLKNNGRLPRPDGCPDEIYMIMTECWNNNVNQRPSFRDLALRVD
Outline: as §1

[3] = molecular target: human JAK3 catalytic kinase (JH1) domain (Homo sapiens (Human), UniProt P52333); assay: ADP-Glo Kinase Assay, recombinant JAK3 catalytic kinase (JH1) domain; conditions: recombinant JH1 domain 0.3 nM, 4 μM ATP, JAK3-974 peptide, mean, read-out: JAK3 biochem IC50 (nM) Mean
human JAK3 catalytic kinase (JH1) domain, sequence (P52333 822-1111): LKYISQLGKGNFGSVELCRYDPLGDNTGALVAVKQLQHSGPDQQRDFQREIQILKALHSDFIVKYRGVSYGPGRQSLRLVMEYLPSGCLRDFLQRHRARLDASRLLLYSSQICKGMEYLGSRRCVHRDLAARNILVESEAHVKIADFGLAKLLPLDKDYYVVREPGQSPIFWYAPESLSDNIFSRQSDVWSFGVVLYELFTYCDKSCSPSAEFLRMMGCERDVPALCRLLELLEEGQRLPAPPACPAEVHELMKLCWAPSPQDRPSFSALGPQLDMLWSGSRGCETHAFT
Outline: as §1

[4] = molecular target: human JAK1 catalytic kinase (JH1) domain (Homo sapiens (Human), UniProt P23458); assay: ADP-Glo Kinase Assay, recombinant JAK1 catalytic kinase (JH1) domain; conditions: recombinant JH1 domain 4 nM, 35 μM ATP, JAK3-342 peptide, mean, read-out: JAK1 biochem IC50 (nM) Mean
human JAK1 catalytic kinase (JH1) domain, sequence (P23458 875-1153): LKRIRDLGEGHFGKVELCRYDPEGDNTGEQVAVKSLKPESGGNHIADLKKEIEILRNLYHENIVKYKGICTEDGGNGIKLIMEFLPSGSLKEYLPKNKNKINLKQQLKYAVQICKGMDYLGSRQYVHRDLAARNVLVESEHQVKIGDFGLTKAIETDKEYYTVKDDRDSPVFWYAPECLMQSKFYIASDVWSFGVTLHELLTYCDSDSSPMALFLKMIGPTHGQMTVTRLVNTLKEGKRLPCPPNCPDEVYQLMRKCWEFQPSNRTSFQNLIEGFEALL
Outline: as §1

human TYK2 catalytic kinase (JH1) domain, sequence (P29597 897-1176): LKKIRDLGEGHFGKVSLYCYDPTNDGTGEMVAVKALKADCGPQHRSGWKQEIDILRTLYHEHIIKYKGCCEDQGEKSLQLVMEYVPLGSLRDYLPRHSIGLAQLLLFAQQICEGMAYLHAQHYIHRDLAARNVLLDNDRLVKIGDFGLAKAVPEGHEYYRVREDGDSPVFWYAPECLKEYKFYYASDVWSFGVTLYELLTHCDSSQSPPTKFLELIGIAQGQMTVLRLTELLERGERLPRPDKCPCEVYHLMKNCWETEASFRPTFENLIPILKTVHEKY

| Structure (SMILES) | IC50 [1] | IC50 [2] | IC50 [3] | IC50 [4] |
| --- | --- | --- | --- | --- |
| Cn1cc(-c2cc3nccc(N4CC5CCC(C4)N5C(=O)[C@@H]4C[C@H]4F)n3n2)cn1 [Example 251, ((1S,2R)-2-fluorocyclopropyl)(3-(2-(1-methyl-1H-pyrazol-4-yl)pyrazolo[1,5-a]pyrimidin-7-yl)-3,8-diazabicyclo[3.2.1]octan-8-yl)methanone] | 81 nM | 472 nM | 2920 nM | 322 nM |
| Cn1cc(-c2nc3c(N4CC5CCC(C4)N5C(=O)[C@@H]4C[C@H]4F)ccnc3[nH]2)cn1 [Example 200, ((1S,2R)-2-fluorocyclopropyl)(3-(2-(1-methyl-1H-pyrazol-4-yl)-3H-imidazo[4,5-b]pyridin-7-yl)-3,8-diazabicyclo[3.2.1]octan-8-yl)methanone] | 0.4 nM | 6 nM | 78 nM | 9 nM |
| CNc1cc(-c2cc3c(N4CC5CCC(C4)N5C(=O)[C@@H]4C[C@H]4F)ncnn3c2)ccn1 [Example 94, ((1S,2R)-2-fluorocyclopropyl)(3-(6-(2-(methylamino)pyridin-4-yl)pyrrolo[2,1-f][1,2,4]triazin-4-yl)-3,8-diazabicyclo[3.2.1]octan-8-yl)methanone] | 18.6 nM | 590 nM | 2940 nM | 230 nM |
| Cn1cc(-c2cc3c(N4CC5CCC(C4)N5C(=O)[C@@H]4C[C@H]4F)ncnn3c2)ccc1=O [Example 165] | 40.3 nM | 902 nM | 4140 nM | 478 nM |
| Cc1ccc(-c2cc3c(N4CC5CCC(C4)N5C(=O)[C@@H]4C[C@H]4F)ccnn3c2)cn1 [Example 113, ((1S,2R)-2-fluorocyclopropyl)(3-(6-(6-methylpyridin-3-yl)pyrrolo[1,2-b]pyridazin-4-yl)-3,8-diazabicyclo[3.2.1]octan-8-yl)methanone] | 3 nM | 56 nM | 672 nM | 69 nM |
| COc1ccc(-c2cc3c(N4CC5CCC(C4)N5C(=O)[C@@H]4C[C@H]4F)ccnn3c2)cn1 [Example 114, ((1S,2R)-2-fluorocyclopropyl)(3-(6-(6-methoxypyridin-3-yl)pyrrolo[1,2-b]pyridazin-4-yl)-3,8-diazabicyclo[3.2.1]octan-8-yl)methanone] | 3.8 nM | 47 nM | 684 nM | 54 nM |
| COc1nccc(-c2cc3c(N4CC5CCC(C4)N5C(=O)[C@@H]4C[C@H]4F)ccnn3c2)c1F [Example 26, (3-(6-(3-fluoro-2-methoxypyridin-4-yl)pyrrolo[1,2-b]pyridazin-4-yl)-3,8-diazabicyclo[3.2.1]octan-8-yl)((1S,2R)-2-fluorocyclopropyl)methanone] | 9.8 nM | 145 nM | 1190 nM | 292 nM |
| O=C(C1CC1)N1C2CCC1CN(c1ccnc3[nH]c(-c4cnn(C(F)F)c4)nc13)C2 [Example 214, cyclopropyl(3-(2-(1-(difluoromethyl)-1H-pyrazol-4-yl)-3H-imidazo[4,5-b]pyridin-7-yl)-3,8-diazabicyclo[3.2.1]octan-8-yl)methanone] | 7.6 nM | 62 nM | 346 nM | 94 nM |
| CC(C)n1ncc(-c2cc3c(N4CC5CCC(C4)N5C(=O)C4CC4)ncnn3c2)c1F [Example 162] | 94.9 nM | 1620 nM | 1250 nM | 210 nM |
| Cn1cc(-c2cc3c(N4CC5CCC(C4)N5C(=O)C4CC4)ncnc3[nH]2)cn1 [Example 220, cyclopropyl(3-(6-(1-methyl-1H-pyrazol-4-yl)-7H-pyrrolo[2,3-d]pyrimidin-4-yl)-3,8-diazabicyclo[3.2.1]octan-8-yl)methanone] | 34 nM | 690 nM | 501 nM | 242 nM |
| O=C([C@@H]1C[C@H]1F)N1C2CCC1CN(c1ccnc3[nH]c(-c4ccc(C(F)F)nc4)nc13)C2 [Example 206] | 6.8 nM | 35 nM | 744 nM | 24 nM |
